Measurements taken from patent US20150118229A1, “JAK1 SELECTIVE INHIBITOR AND USES THEREOF” (ABBVIE INC., priority 2013, published 2015).
Read-outs that look alike come from different tables or passages of the source.

Key:
Rock1 = Rock1 (Homo sapiens, UniProt Q13464); experiment: Kinase panel, Rock1; format: biochemical
[1] = 6-month (26 weeks) GLP chronic oral toxicity study in rats; format: in vivo, rat; details: for AUC(0-t) / Cmax: po, rat 20 mg/kg/day; for AUC(0-t): read-out: AUC0-24 at NOAEL; for Cmax: read-out: Cmax at NOAEL
Protocol: The GLP-compliant studies each included 4 weeks of oral dosing followed by a 4-week recovery period in both rats and dogs followed by GLP-compliant chronic toxicity studies in rats (6 months of oral dosing) and dogs (9 months of oral dosing).
The 6-month chronic rat study was conducted at dose levels of 0, 5, 20, and 50 mg/kg/day by daily oral administration (gavage).

in vivo [2] = details: both, rat, po
Protocol: (§1) The 4-week rat study was conducted at dose levels of 0, 10, 50, 100, and 200 mg/kg/day by daily oral administration (gavage). […] The cause of death was not determined for animals that died.

[3] = test system: IL-7-dependent STAT5 phosphorylation; experiment: Ex vivo IL-7-stimulated pSTAT5 in blood of orally dosed rats; details: Rattus norvegicus, po; rats dosed bid 14 days, blood 12 hours after final dose; read-out: IC50, inhibition of IL-7-induced pSTAT5 formation ex vivo
From the text: Unlike other common gamma chain receptors, IL-7 receptors are expressed relatively abundantly on peripheral blood T cells, enabling the use of IL-7 as an agonist in ex vivo stimulation assays. Stimulation of whole blood with IL-7 leads to phosphorylation of STAT5, which can be measured by flow cytometry. Because STAT proteins are Jak kinase substrates, inhibition of their phosphorylation can be considered a mechanistic readout for Jak inhibition.

OCT1 = OCT1 (Homo sapiens, UniProt O15245); experiment: Transporter inhibition, OCT1; details: up to 30 μM
[4] = test system: EPO dependent reticulocyte deployment; experiment: Reticulocyte deployment assay (i.v. EPO) in rats; format: in vivo; details: over the exposure range efficacious in rat AIA
From the text: Reticulocytes were deployed with an i.v. EPO injection, which produced a modest but very precise reticulocytosis.
In contrast, PBS control has negligible (if any) effect. This is consistent with the fact that EPO signals through Jak2 to stimulate reticulocyte development.

EPO (Erythroid CFU) = experiment: Erythroid bone marrow colony forming assay (EPO); format: cell-based; details: read-out: Colony Formation EPO (Erythroid CFU)
[5] = Metabolic stability in hepatocytes, rat; format: in vitro ADME; details: read-out: intrinsic clearance in hepatocytes (converted)
[6] = test system: peripheral NK, NKT cells, circulating reticulocytes; experiment: NK, NKT cell and reticulocyte counts in healthy human subjects dosed bid for 14 days; format: in vivo; details: 3, 6, 12, 24 mg bid 14 days
Protocol: The following procedure is provided to illustrate a method of counting TBNK cells from a blood sample, such as one collected from a human subject orally dosed with a compound of the invention. The method (including the type of instruments and reagents used) as described herein in is non-limiting, as minor variations to the procedure and equivalent instruments and reagents can be readily envisioned.
Specifically, a blood sample is collected into 3 mL lavender K2 EDTA Vacutainer at specified time points and tubes mixed. Samples are shipped to analysis facility at ambient temperature overnight, and sample analysis is preferably done on the day received.
Two BD Trucount tubes (BD Biosciences, cat #340334) are used per sample and labeled with sample number followed by A or B. Two tubes are also set up for the BD Multi-Check Control (BD Biosciences, cat #340911) that is a stabilized blood sample used as an inter-run control each time samples are analyzed. […]
For NKT cell determination, cell numbers are determined by using FlowJo and looking at the CD3^+/CD16^+/CD56^+ population. The number of cells/μL is calculated by using the following equation: (the number of events in cell population/the number of events in absolute bead count region)×(the number of beads per test*/test volume). *This value is found on BD Trucount tube label.

[7] = Plasma protein binding, rat; format: in vitro ADME
[8] = Pivotal 4-week GLP oral toxicity study in rats; details: rat, 4 weeks; leading number = dose mg/kg/day
Protocol: as §1

BCRP = biological target: T1, BCRP (Homo sapiens, UniProt Q9UNQ0); experiment: BCRP inhibition; format: in vitro ADME
T1 construct: expressed in transfected cells; host or cells: MDCKII-BCRP

[9] = Definitive embryofetal development toxicity study in rats; format: in vivo; details: rat
From the text: One additional group of 25 time-mated females served as the control and received the vehicle, 0.2% hydroxypropyl methylcellulose (HPMC, high viscosity) in deionized water.

[10] = Plasma protein binding, dog; format: in vitro ADME
in vivo [11] = details: dog; for AUC(0-inf): AUC0-∞
[12] = Metabolic stability in hepatocytes, dog; format: in vitro ADME; details: read-out: intrinsic clearance in hepatocytes (converted)
[13] = Plasma protein binding, monkey; format: in vitro ADME
[14] = both, beagle, po, 0.5 mg/kg/day

Sequence of Rock1 (Q13464 whole entry, species assumed): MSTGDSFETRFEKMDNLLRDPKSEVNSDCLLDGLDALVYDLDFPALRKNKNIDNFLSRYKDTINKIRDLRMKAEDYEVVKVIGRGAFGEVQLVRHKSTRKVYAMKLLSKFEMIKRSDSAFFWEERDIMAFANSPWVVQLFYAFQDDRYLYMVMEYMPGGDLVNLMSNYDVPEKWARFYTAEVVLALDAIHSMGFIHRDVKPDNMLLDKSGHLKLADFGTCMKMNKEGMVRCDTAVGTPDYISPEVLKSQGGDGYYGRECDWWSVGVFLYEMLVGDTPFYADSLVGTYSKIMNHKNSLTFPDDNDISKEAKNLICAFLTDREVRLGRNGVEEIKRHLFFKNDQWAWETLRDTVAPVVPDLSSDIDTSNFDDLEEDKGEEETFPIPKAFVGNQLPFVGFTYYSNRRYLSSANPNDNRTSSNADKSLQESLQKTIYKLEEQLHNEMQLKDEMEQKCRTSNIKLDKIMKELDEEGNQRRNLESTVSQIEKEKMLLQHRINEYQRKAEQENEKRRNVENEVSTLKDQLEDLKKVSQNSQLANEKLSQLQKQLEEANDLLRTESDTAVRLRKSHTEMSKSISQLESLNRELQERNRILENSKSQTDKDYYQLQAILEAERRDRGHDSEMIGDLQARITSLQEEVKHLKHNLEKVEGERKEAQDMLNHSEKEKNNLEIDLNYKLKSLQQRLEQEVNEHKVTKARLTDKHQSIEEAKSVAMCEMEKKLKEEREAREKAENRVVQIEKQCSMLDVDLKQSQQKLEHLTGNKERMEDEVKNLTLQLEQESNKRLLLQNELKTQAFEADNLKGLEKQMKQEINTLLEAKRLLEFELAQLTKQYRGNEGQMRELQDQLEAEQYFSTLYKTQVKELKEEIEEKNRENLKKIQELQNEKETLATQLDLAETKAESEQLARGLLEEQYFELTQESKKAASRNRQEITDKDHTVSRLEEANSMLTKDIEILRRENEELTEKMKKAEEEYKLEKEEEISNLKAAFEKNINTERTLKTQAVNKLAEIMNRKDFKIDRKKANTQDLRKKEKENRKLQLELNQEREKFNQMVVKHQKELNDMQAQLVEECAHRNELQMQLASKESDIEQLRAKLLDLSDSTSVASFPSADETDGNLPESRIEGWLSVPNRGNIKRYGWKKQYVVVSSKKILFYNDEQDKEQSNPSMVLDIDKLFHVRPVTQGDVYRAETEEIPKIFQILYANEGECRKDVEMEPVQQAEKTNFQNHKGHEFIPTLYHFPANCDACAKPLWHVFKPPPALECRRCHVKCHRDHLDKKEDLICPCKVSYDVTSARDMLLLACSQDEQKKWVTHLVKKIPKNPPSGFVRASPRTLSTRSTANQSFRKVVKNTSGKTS
T1 sequence (Q9UNQ0 whole entry): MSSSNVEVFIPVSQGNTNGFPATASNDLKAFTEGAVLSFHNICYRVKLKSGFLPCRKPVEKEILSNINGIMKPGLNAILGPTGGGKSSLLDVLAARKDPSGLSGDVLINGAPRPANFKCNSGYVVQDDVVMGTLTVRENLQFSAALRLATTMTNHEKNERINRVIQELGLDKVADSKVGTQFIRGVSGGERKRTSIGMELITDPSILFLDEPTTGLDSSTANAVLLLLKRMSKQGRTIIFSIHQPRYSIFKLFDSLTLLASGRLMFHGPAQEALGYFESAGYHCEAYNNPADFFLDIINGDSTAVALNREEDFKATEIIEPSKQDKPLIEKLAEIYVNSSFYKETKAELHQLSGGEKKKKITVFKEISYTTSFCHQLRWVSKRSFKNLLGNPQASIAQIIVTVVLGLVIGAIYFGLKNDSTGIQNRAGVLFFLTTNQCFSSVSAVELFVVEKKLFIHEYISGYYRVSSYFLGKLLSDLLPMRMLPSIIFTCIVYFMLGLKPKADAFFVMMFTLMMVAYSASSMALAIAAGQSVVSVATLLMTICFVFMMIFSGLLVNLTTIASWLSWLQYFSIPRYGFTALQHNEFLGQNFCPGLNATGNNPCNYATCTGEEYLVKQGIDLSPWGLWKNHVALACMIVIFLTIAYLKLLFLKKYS
Sequence of OCT1 (O15245 whole entry): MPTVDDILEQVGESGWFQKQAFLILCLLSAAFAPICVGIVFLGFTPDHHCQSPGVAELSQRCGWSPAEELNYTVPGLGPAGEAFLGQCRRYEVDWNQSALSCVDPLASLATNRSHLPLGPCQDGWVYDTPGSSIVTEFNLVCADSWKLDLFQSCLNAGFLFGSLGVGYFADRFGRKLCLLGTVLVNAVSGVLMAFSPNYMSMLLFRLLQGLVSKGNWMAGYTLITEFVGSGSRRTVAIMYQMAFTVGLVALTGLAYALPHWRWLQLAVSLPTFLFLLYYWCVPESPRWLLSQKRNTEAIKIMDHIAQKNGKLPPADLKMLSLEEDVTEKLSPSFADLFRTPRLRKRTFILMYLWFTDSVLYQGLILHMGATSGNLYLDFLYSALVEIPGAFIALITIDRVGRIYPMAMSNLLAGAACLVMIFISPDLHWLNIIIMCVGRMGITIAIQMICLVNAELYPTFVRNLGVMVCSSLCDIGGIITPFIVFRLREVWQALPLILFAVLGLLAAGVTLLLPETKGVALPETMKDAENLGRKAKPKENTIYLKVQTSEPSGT

CC[C@@H]1CN(C(=O)NCC(F)(F)F)C[C@@H]1c1cnc2cnc3[nH]ccc3n12 [Compound 1, (3S,4R)-3-ethyl-4-(3H-imidazo[1,2-a]pyrrolo[2,3-e]pyrazin-8-yl)-N-(2,2,2-trifluoroethyl)pyrrolidine-1-carboxamide]
IC50 (Rock1): 550 nM
AUC(0-t) ([1]; female, in vivo, females): 6840 ng·h/mL
Cmax ([1]; female, in vivo, females): 2240 ng/mL
NOAEL at 6 months ([1]; in vivo, rat, 6 months (26 weeks) oral gavage): 20 mg/kg/day
AUC(0-t) ([1]; male, in vivo, males): 3830 ng·h/mL
Cmax ([1]; male, in vivo, males): 1110 ng/mL
Adverse Findings ([1]; rat, 26 weeks, 50 mg/kg/day): 50: Kidneys-tubular
NOAEL at 4 weeks (in vivo [2]): 50 mg/kg/day
IC50 [3]: ~20 nM
inhibition of OCT1 uptake (OCT1): No significant inhibition
effects on reticulocyte deployment [4]: less than that of Tofacitinib
IC50 (EPO (Erythroid CFU)): 400 nM
CLint scaled at 1 μM [5]: 67.8 mL/min/kg
peripheral NK or NKT cell counts per μL [6]: only at 12 and 24 mg
reticulocyte counts [6]: does not dose dependently reduce reticulocyte counts
fraction unbound [7]: 0.36
Adverse Findings [8]: ≧100: Mortality
IC50 (BCRP): 126000 nM
maternal clinical observations, body weights, food consumption, macroscopic examinations ([9]; GD 6 to 17): No Compound 1-related effects
NOEL ([9]; oral, GD 6-17): NOEL < 5 mg/kg/day
fraction unbound [10]: 0.82
AUC (in vivo [11]; [14]): 359 ng·h/mL
AUC at 28 days (in vivo [11]; [14]): 339 ng·h/mL
AUC (in vivo [11]; both, beagle, po, 3 mg/kg/day): 2200 ng·h/mL
AUC at 28 days (in vivo [11]; both, beagle, po, 3 mg/kg/day): 2140 ng·h/mL
Cmax (in vivo [11]; both, beagle, po, 3 mg/kg/day): 617 ng/mL
AUC (in vivo [11]; both, beagle, po, 5 mg/kg/day): 4430 ng·h/mL
AUC at 28 days (in vivo [11]; both, beagle, po, 5 mg/kg/day): 4100 ng·h/mL
Cmax (in vivo [11]; both, beagle, po, 5 mg/kg/day): 1240 ng/mL
Vd (in vivo [11]; iv, 1 mg/kg): 2.6 L/kg
clearance (in vivo [11]; iv, 1 mg/kg): 11 mL/min/kg
half-life (in vivo [11]; iv, 1 mg/kg): 3.1 h
AUC(0-inf) (in vivo [11]; iv, 1 mg/kg): 1610 ng·h/mL
half-life (in vivo [11]; po, 1 mg/kg): 2.8 h
AUC(0-inf) (in vivo [11]; po, 1 mg/kg): 1240 ng·h/mL
Cmax (in vivo [11]; po, 1 mg/kg): 349 ng/mL
AUC(0-inf) (in vivo [11]; po, 5 mg/kg): 5310 ng·h/mL
CLint scaled at 1 μM [12]: 6.92 mL/min/kg
fraction unbound [13]: 0.61
